Data on 1 compound can be found in PMC4898484 (Molecular microbiology, 2015).

The assay concerns the target Plasmodium falciparum phosphatidylserine decarboxylase (PfPSD) (Plasmodium falciparum, UniProt Q9GPP8). As to the kind of experiment: radiometric decarboxylase assay. It counts as biochemical.

Sequence of Plasmodium falciparum phosphatidylserine decarboxylase (PfPSD) (Q9GPP8 41-315): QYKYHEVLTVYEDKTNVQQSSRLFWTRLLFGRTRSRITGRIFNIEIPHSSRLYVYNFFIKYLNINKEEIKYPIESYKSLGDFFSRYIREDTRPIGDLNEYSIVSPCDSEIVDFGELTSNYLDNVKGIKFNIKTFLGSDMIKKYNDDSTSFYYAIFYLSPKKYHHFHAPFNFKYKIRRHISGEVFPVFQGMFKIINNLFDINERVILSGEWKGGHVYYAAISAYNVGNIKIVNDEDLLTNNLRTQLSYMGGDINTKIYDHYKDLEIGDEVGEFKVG
Sequence of Plasmodium falciparum phosphatidylserine decarboxylase (PfPSD) (Q9GPP8 316-362): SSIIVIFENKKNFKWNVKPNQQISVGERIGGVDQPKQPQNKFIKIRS

One may read the IC50 as the point on the concentration scale where inhibition reaches its midpoint. A low value points to greater potency in that assay. In turn, `CCCc1ccc(Nc2ccnc3cc(Cl)ccc23)cc1` [7CPQA, 7-chloro-N-(4-propylphenyl)-4-quinolinamine] came in with an IC50 of 10 to 100 µM.
